The test system of this assay is parasites (ring stage, in human red blood cell culture). Briefly: Parasite LDH growth assay (antiparasite potency, Parasite Assay). Type of assay: cell-based, Plasmodium falciparum. As to conditions: 0.7% rings, 2% haematocrit, 72 hours at 37° C., LDH readout of parasite growth. A digest of the protocol: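 Ring-stage parasites at 0.7% parasitemia and 2% haematocrit, in RPMI-Hepes/bicarbonate with 5% heat-inactivated human serum and 0.5% albumax, were added to compound-containing medium. Cultures grew 72 h at 37 °C in gassed humidified boxes. Plates were then frozen overnight at −80 °C, thawed 4 h, and growth was measured by LDH assay.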

The mark [1] stands for this setting: Plasmodium falciparum, Erythrocyte, 72 h.

Take `CCC1(CC)CC(=O)N(C2c3cc(C(=O)N[C@@H]4c5ccccc5C[C@H]4O)ccc3OC2(C)C)C(=N)N1` (stereo partly drawn) [Example 127A, 3-(4,4-diethyl-2-imino-6-oxo-hexahydropyrimidin-1-yl)-N-[(1R,2R)-2-hydroxyindan-1-yl]-2,2-dimethyl-3H-benzofuran-5-carboxamide]: under setting [1], the half-maximal effective concentration (EC50) (in general, the concentration at which the effect is half-maximal) turned out to be 202 nM.
The molecule `CCC1(CC)CC(=O)N(C2c3cc(C(=O)N[C@@H]4c5ccccc5C[C@H]4O)ccc3OC2(C)C)C(=N)N1` (stereo partly drawn) [Example 127B, 3-(4,4-diethyl-2-imino-6-oxo-hexahydropyrimidin-1-yl)-N-[(1R,2R)-2-hydroxyindan-1-yl]-2,2-dimethyl-3H-benzofuran-5-carboxamide] registered an EC50 of 222 nM.
Under setting [1], `CCC1(CC)CC(=O)N([C@@H]2C[C@@H](C)Oc3ccc(C(=O)N[C@@H]4c5ccccc5C[C@H]4O)cc32)C(=N)N1` [Example 128, (2R,4R)-4-(4,4-diethyl-2-imino-6-oxo-hexahydropyrimidin-1-yl)-N-[(1R,2R)-2-hydroxyindan-1-yl]-2-methyl-chromane-6-carboxamide] yielded a concentration giving a half-maximal response (EC50) of 2.8 nM.
Same read-out and setting: next, `CC[C@]1(C)CC(=O)N([C@@H]2C[C@@H](C)Oc3ccc(C(=O)N[C@@H]4c5ccccc5C[C@@]4(C)O)cc32)C(=N)N1` [Example 129, (2R,4R)-4-[(4R)-4-ethyl-2-imino-4-methyl-6-oxo-hexahydropyrimidin-1-yl]-N-[(1R,2R)-2-hydroxy-2-methyl-indan-1-yl]-2-methyl-chromane-6-carboxamide]: 3.5 nM.
Turning to `CC[C@]1(C)CC(=O)N([C@@H]2C[C@@H](C)c3ccc(C(=O)N[C@@H]4c5ccccc5OC[C@]4(C)O)cc32)C(=N)N1` [Example 130, (1R,3R)-3-[(4R)-4-ethyl-2-imino-4-methyl-6-oxo-hexahydropyrimidin-1-yl]-N-[(3R,4R)-3-hydroxy-3-methyl-chroman-4-yl]-1-methyl-indane-5-carboxamide], the EC50 under setting [1] amounted to 2.1 nM.
The same measure, in the same setting: next, `CC[C@]1(C)CC(=O)N([C@@H]2C[C@@H](C)c3ccc(C(=O)N[C@@H]4c5ccccc5OC[C@@]4(C)O)cc32)C(=N)N1` [Example 131, (1R,3R)-3-[(4R)-4-ethyl-2-imino-4-methyl-6-oxo-hexahydropyrimidin-1-yl]-N-[(3S,4R)-3-hydroxy-3-methyl-chroman-4-yl]-1-methyl-indane-5-carboxamide]: 2 nM.
Consider `CCC1(CC)CC(=O)N([C@@H]2CCCOc3ccc(C(=O)N[C@@H]4c5ccccc5C[C@H]4O)cc32)C(=N)N1` [Example 132, (5R)-5-(4,4-diethyl-2-imino-6-oxo-hexahydropyrimidin-1-yl)-N-[(1R,2R)-2-hydroxyindan-1-yl]-2,3,4,5-tetrahydro-1-benzoxepine-7-carboxamide], for which the midpoint of the response under setting [1], the EC50, lay at 1.6 nM.
The same measure, in the same setting: for `CC1(C)CC(=O)N(C2c3cc(C(=O)N[C@H]4CC(C)(C)Oc5ccccc54)ccc3OC2(C)C)C(=N)N1` (stereo partly drawn) [Example 134, N-[(4S)-2,2-dimethylchroman-4-yl]-3-(2-imino-4,4-dimethyl-6-oxo-hexahydropyrimidin-1-yl)-2,2-dimethyl-3H-benzofuran-5-carboxamide] the value was 8.8 nM; for `C[C@@H]1Cc2ccc(C(=O)N[C@@H]3c4ccccc4OC(C)(C)[C@H]3O)cc2[C@@H]1N1C(=N)NC(C)(C)CC1=O` [Example 135, (2R,3R)-N-[(3S,4R)-3-hydroxy-2,2-dimethyl-chroman-4-yl]-3-(2-imino-4,4-dimethyl-6-oxo-hexahydropyrimidin-1-yl)-2-methyl-indane-5-carboxamide], 0.9 nM; for `C[C@H]1Cc2ccc(C(=O)N[C@@H]3c4ccccc4OC(C)(C)[C@H]3O)cc2[C@@H]1N1C(=N)NC(C)(C)CC1=O` [Example 136, (2S,3R)-N-[(3S,4R)-3-hydroxy-2,2-dimethyl-chroman-4-yl]-3-(2-imino-4,4-dimethyl-6-oxo-hexahydropyrimidin-1-yl)-2-methyl-indane-5-carboxamide], 1.3 nM.
The same measure, in the same setting: for `C[C@H]1Cc2ccc(C(=O)N[C@@H]3c4ccccc4OC(C)(C)[C@H]3O)cc2[C@H]1N1C(=N)NC(C)(C)CC1=O` [Example 137, (2S,3S)-N-[(3S,4R)-3-hydroxy-2,2-dimethyl-chroman-4-yl]-3-(2-imino-4,4-dimethyl-6-oxo-hexahydropyrimidin-1-yl)-2-methyl-indane-5-carboxamide] the value was 239 nM.
Still for that read-out and setting: for `C[C@@H]1C[C@@H](N2C(=N)NC(C)(C)CC2=O)c2cc(C(=O)N[C@@H]3c4ccccc4OC(C)(C)[C@H]3O)ccc21` [Example 138, (1R,3R)-N-[(3S,4R)-3-hydroxy-2,2-dimethyl-chroman-4-yl]-3-(2-imino-4,4-dimethyl-6-oxo-hexahydropyrimidin-1-yl)-1-methyl-indane-5-carboxamide] the value was 0.9 nM; for `C[C@H]1C[C@H](N2C(=N)NC(C)(C)CC2=O)c2cc(C(=O)N[C@@H]3c4ccccc4OC(C)(C)[C@H]3O)ccc21` [Example 139, (1S,3S)-N-[(3S,4R)-3-hydroxy-2,2-dimethyl-chroman-4-yl]-3-(2-imino-4,4-dimethyl-6-oxo-hexahydropyrimidin-1-yl)-1-methyl-indane-5-carboxamide], 180 nM.
The molecule `CCC1(CC)CC(=O)N([C@H]2c3cc(C(=O)N[C@@H]4c5ccccc5C[C@H]4O)ccc3CC2OC)C(=N)N1` (stereo partly drawn) [Example 140A, (3S)-3-(4,4-diethyl-1-imino-6-oxo-hexahydroyrimidin-1-yl)-N-[(1R,2R)-2-hydroxyindan-1-yl]-2-methoxy-indane-5-carboxamide] showed a 50% effective concentration (EC50) under setting [1] of 1.4 nM.
Consider `CCC1(CC)CC(=O)N([C@H]2c3cc(C(=O)N[C@@H]4c5ccccc5C[C@H]4O)ccc3CC2OC)C(=N)N1` (stereo partly drawn) [Example 140B, (3S)-3-(4,4-diethyl-2-imino-6-oxo-hexahydropyrimidin-1-yl)-N-[(1R,2R)-2-hydroxyindan-1-yl]-2-methoxy-indane-5-carboxamide], for which it took 1.7 nM to reach a half-maximal effect (EC50).
On to `CC[C@]1(C)CC(=O)N([C@@H]2CCOc3ccc(C(=O)N[C@@H]4c5ccccc5OC[C@H]4OC)cc32)C(=N)N1` [Example 141, (4R)-4-[(4R)-4-ethyl-2-imino-4-methyl-6-oxo-hexahydropyrimidin-1-yl]-N-[(3S,4R)-3-methoxychroman-4-yl]chromane-6-carboxamide], for which the half-maximal effective concentration (EC50) under setting [1] amounted to 8.4 nM.
With `COC1COc2ccc(C(=O)N[C@@H]3c4ccccc4C[C@]3(C)O)cc2C1N1C(=N)NC(C)(C)CC1=O` (stereo partly drawn) [Example 142, N-[(1R,2S)-2-hydroxy-2-methyl-indan-1-yl]-4-(2-imino-4,4-dimethyl-6-oxo-hexahydropyrimidin-1-yl)-3-methoxy-chromane-6-carboxamide], the EC50 under setting [1] is 98.5 nM.
Consider `COC1COc2ccc(C(=O)N[C@@H]3c4ccccc4C[C@@]3(C)O)cc2C1N1C(=N)NC(C)(C)CC1=O` (stereo partly drawn) [Example 143, N-[(1R,2R)-2-hydroxy-2-methyl-indan-1-yl]-4-(1-imino-4,4-dimethyl-6-oxo-hexahydropyrimidin-1-yl)-3-methoxy-chromane-6-carboxamide], for which the EC50 under setting [1] was determined as 178 nM.
Under setting [1], `CC1(C)CC(=O)N(C2c3cc(C(=O)N[C@H]4CC(C)(C)Oc5ccccc54)ccc3OCC2O)C(=N)N1` (stereo partly drawn) [Example 144, N-[(4S)-2,2-dimethylchroman-4-yl]-3-hydroxy-4-(2-imino-4,4-dimethyl-6-oxo-hexahydropyrimidin-1-yl)chromane-6-carboxamide] came in with an EC50 of 194 nM.
Consider `CC[C@]1(C)CC(=O)N(C2c3cc(C(=O)N[C@@H]4c5ccccc5C[C@H]4O)ccc3OCC2OC)C(=N)N1` (stereo partly drawn) [Example 145, 4-[(4R)-4-ethyl-2-imino-4-methyl-6-oxo-hexahydropyrimidin-1-yl]-N-[(1R,2R)-2-hydroxyindan-1-yl]-3-methoxy-chromane-6-carboxamide], for which the EC50 under setting [1] was 40.8 nM.
On the same count and under the same terms, next, `COCC1(C)Oc2ccc(C(=O)N[C@@H]3c4ccccc4C[C@H]3O)cc2C1N1C(=N)NC(C)(C)CC1=O` (stereo partly drawn) [Example 146, N-[(1R,2R)-2-hydroxyindan-1-yl]-3-(2-imino-4,4-dimethyl-6-oxo-hexahydropyrimidin-1-yl)-2-(methoxymethyl)-2-methyl-3H-benzofuran-5-carboxamide]: 35.5 nM; `CCC1(CC)CC(=O)N([C@@H]2CCOc3ccc(C(=O)N[C@H]4c5cc(F)ccc5C[C@@H]4O)cc32)C(=N)N1` [Example 147, (4R)-4-(4,4-diethyl-2-imino-6-oxo-hexahydropyrimidin-1-yl)-N-[(1S,2S)-6-fluoro-2-hydroxy-indan-1-yl]chromane-6-carboxamide]: 160 nM; `CCC1(CC)CC(=O)N([C@@H]2CCOc3ccc(C(=O)N[C@@H]4c5cc(F)ccc5C[C@H]4O)cc32)C(=N)N1` [Example 148, (4R)-4-(4,4-diethyl-2-imino-6-oxo-hexahydropyrimidin-1-yl)-N-[(1R,2R)-6-fluoro-2-hydroxy-indan-1-yl]chromane-6-carboxamide]: 2.7 nM.
As for `CC1(C)CC(=O)N([C@@H]2CCc3ccc(C(=O)N[C@@H]4c5cc(F)ccc5OC(C)(C)[C@H]4O)cc32)C(=N)N1` [Example 149, (3R)-N-[(3S,4R)-6-fluoro-3-hydroxy-2,2-dimethyl-chroman-4-yl]-3-(2-imino-4,4-dimethyl-6-oxo-hexahydropyrimidin-1-yl)indane-5-carboxamide], the response under setting [1] was half-maximal at 1.1 nM (EC50).
Same read-out and setting: for `CCC1(CC)CC(=O)N([C@@H]2CCOc3ccc(C(=O)NC(CO)c4ccccc4OC)cc32)C(=N)N1` (stereo partly drawn) [Example 150, (4R)-4-(4,4-diethyl-2-imino-6-oxo-hexahydropyrimidin-1-yl)-N-[2-hydroxy-1-(2-methoxyphenyl)ethyl]chromane-6-carboxamide] the value was 49 nM; for `CC[C@]1(C)CC(=O)N([C@@H]2CCOc3ccc(C(=O)NC4c5cc(F)ccc5OCC4O)cc32)C(=N)N1` (stereo partly drawn) [Example 151, (4R)-4-[(4R)-4-ethyl-2-imino-4-methyl-6-oxo-hexahydropyrimidin-1-yl]-N-(6-fluoro-3-hydroxy-chroman-4-yl)chromane-6-carboxamide], 5.4 nM.

The values above are taken from patent publication US12350270B2, “Antimalarial agents” (Merck Sharp & Dohme LLC, priority 2019, dated 2025).
